In US20210205271A1 (The Johns Hopkins University, priority 2018, published 2021):
Values after ≈ are worked out from the molar mass of the structure shown. Values joined by “and” are separate entries in the source; they are usually repeats but may differ in a detail not shown here. Equal values may be shown once.

Key:
[1] = In vitro stability in mouse jejunum (intestinal) homogenate; assay type: in vitro ADME; details: for In vitro stability in mouse (% remaining at 60 min) Intestinal homogenate: 10 μM
Procedure: (§1) In addition to solubility, all prodrugs were screened for in vitro metabolic stability in mouse jejunum homogenate, liver microsomes and plasma (see Table 3) to characterize their bioconversion to MBZ. The screening paradigm was designed to confirm activation of prodrugs to MBZ following oral administration in these highly metabolic sites. Initial screening was done in mouse jejunum homogenate by incubating the compounds for 60 min. […] Following jejunum stability, the prodrugs were screened in mouse liver microsomes.
(§2) In vitro stability studies were done using mouse jejunum homogenate, mouse liver microsomes or naïve mouse plasma. For mouse jejunum homogenate stability study, washed mouse jejunum was diluted 10-fold in 0.1 M potassium phosphate buffer, and homogenized using probe sonication. Crude homogenate was then aliquoted to 1 mL and the homogenate was spiked with 10 μM of compound. Liver microsome stability assay was performed in 100 mM potassium phosphate buffer, pH 7.4, and reactions were initiated by addition of the liver microsomes to the incubation mixture (compound final concentration was 10 μM; 0.5 mg/mL microsomes). The plasma stability of the prodrugs was determined by spiking (10 μM) of prodrugs in 1 mL of plasma and incubating in an orbital shaker at 37° C. All the stability studies were conducted at predetermined times (0 and 60 min), where 100 μL aliquots of the mixture in triplicate were removed and the reaction was quenched by addition of three times the volume of ice cold acetonitrile spiked with the internal standard (losartan: 0.5 μM). The samples were vortex mixed for 30 sec and centrifuged at 10000×g for 10 min at 4° C. Fifty microliter of the supernatant was diluted with 50 μL water and transferred to a 2504 polypropylene vial sealed with a Teflon cap. Prodrug disappearance was monitored over time using liquid chromatography and tandem mass spectrometry (LC-MS/MS).
(§3) Briefly, prodrugs were analyzed on a Thermo Scientific Accela UPLC system coupled to Accela open autosampler at ambient temperature with an Agilent Eclipse Plus column (100×2.1 mm i.d.) packed with a 1.8 μm C18 stationary phase. The autosampler was temperature controlled and operated at 10° C. The mobile phase used for the chromatographic separation was composed of acetonitrile/water containing 0.1% formic acid and with a flow rate of 0.4 mL/min for 4.5 min using gradient elution. The column effluent was monitored using TSQ Vantage triple-quadrupole mass-spectrometric detector, equipped with an electrospray probe set in the positive ionization mode. Samples were introduced into the ionization source through a heated nebulized probe (350° C.). Disappearance of prodrugs was measured from ratio of peak areas of analyte to IS.

[2] = In vitro stability in mouse plasma; assay type: in vitro ADME; details: for In vitro stability in mouse (% remaining at 60 min) Plasma: 10 μM, 37° C.
Procedure: as §1, §2, §3

physchem = details: for solubility at 24 h: 37 °C, thermodynamic from solid; for fold improvement in solubility over MBZ-C: 24 h, pH 7.4
Procedure: The aqueous solubility was determined as previously reported using the shake-flask procedure published by Zhou, et al., 2007. The compound was added to PBS buffer (0.01 M) and shaken for 24 h at 37° C. to ensure saturation. After 24 h, the solution was centrifuged (10,000 rpm, 2 min, RT) filtered (0.45 μm PTFE) and the filtrate was diluted appropriately (i.e. neat, 1/10, 1/100, 1/1000) and the concentration of compound was determined using LC/MS.

[3] = male, CD-1, mouse, in vivo, 30 mg/kg
Procedure: (§4) All pharmacokinetic studies in mice were conducted according to protocols approved by the Animal Care and Use Committee at Johns Hopkins University. Male CD-1 mice between 25 and 30 g were obtained from Harlan, and maintained on a 12-h light-dark cycle with ad libitum access to food and water. […] The mice were sacrificed at specified time points post drug administration. For collection of plasma and brain tissue, animals were euthanized with CO2, and blood samples were collected in heparinized microtubes by cardiac puncture. Tissues were dissected and immediately flash frozen (−80° C.). Blood samples were spun at 2,000×g for 15 min, plasma was removed and stored at −80° C. until LC/MS analysis. Prior to extraction, frozen samples were thawed on ice. The calibration curves were developed using plasma and brain from naïve animals as a matrix. Plasma samples (50 μL), were processed using a single liquid extraction method by addition of 3004 of acetonitrile as with internal standard (losartan: 0.5 μM), followed by vortex mixing for 30 sec and then centrifugation at 10,000×g for 10 min at 4° C. For brain tissue, homogenized samples were vortex mixed and centrifuged as above. A 104 aliquot of supernatant was diluted with 35 µL of acetonitrile and mixed with 50 μL water containing 0.5 μM losartan as internal standard. Extracts were centrifuged at 10,000×g for 10 min at 4° C. Supernatants were transferred to 2504 polypropylene autosampler vials sealed with a Teflon cap. A volume of 34 was injected onto the ultra-performance liquid chromatography (UPLC) instrument for quantitative analysis by LC-MS/MS.
The a priori level of significance for all analyses was defined asp <0.05.

[4] = In vitro stability in mouse liver microsomes; assay type: in vitro ADME; details: for In vitro stability in mouse (% remaining at 60 min) Liver microsomes: 10 μM, 0.5 mg/mL microsomes
Procedure: as §1, §2, §3

[5] = Chemical stability in PBS at 37° C. (LC-MS); assay type: physicochemical; details: for chemical stability: aqueous environment / PBS
Procedure: Prodrugs were also tested for chemical stability in 0.01 M PBS for 60 min at 37° C. by monitoring intact prodrug using LC-MS. […] Thus prodrug 14 was not assessed in assays due to its significant instability in PBS at pH 7.4.
Prodrug chemical stability was measured by the addition of 1 μL, of 10 mM DMSO stock solution to 1 mL of preheated (37° C.) […], resulting in a final concentration of 10 μM. The mixture was vortex mixed for 30 sec, and then incubated at 37° C. At specified time points 100 μL of the mixture was removed and extracted with 300 μL of cold acetonitrile (0° C.) with internal standard. This mixture was further diluted with 400 μL of water and the resulting solution was analyzed by LC-MS.

[6] = in vivo, po
Procedure: Brain concentrations of MBZ were also measured in tandem.
as §4

[7] = cited from earlier work

Structure (SMILES) | In vitro stability in mouse (% remaining at 60 min) Intestinal homogenate [1] | In vitro stability in mouse (% remaining at 60 min) Plasma [2] | fold improvement in solubility over MBZ-C (physchem) | In vitro stability in mouse (% remaining at 60 min) Liver microsomes [4] | other results
COC(=O)Nc1nc2cc(C(=O)c3ccccc3)ccc2n1COC(=O)C(C)(C)C [Compound 1, (5-Benzoyl-2-((methoxycarbonyl)amino)-1H-benzo[d]imidazol-1-yl)methyl pivalate] | 37 ± 2% | 4 ± 0% |  |  | 
COC(=O)Nc1nc2cc(C(=O)c3ccccc3)ccc2n1COC(=O)CNC(=O)[C@H](CC(C)C)NC(C)=O [Compound 7, (5-Benzoyl-2-((methoxycarbonyl)amino)-1H-benzo[d]imidazol-1-yl)methyl acetyl-L-leucylglycinate] | 18 ± 1% | 0 ± 0% | greater than 200 fold | 29 ± 1% | solubility at 24 h (physchem; pH 7.4, aqueous buffer): 85.5 µg/mL (≈ 159 µM); MBZ plasma concentration at 1 h post oral administration [3]: 8.72 ± 0.63 nmol/mL; chemical stability [5]: sufficiently stable
COC(=O)Nc1nc2cc(C(=O)c3ccccc3)ccc2n1COC(=O)CCC(=O)O [Compound 8, 4-((5-Benzoyl-2-((methoxycarbonyl)amino)-1H-benzo[d]imidazol-1-yl)methoxy)-4-oxobutanoic acid] | 30 ± 2% | 78 ± 1% | greater than 200 fold | 24 ± 0% | solubility at 24 h (physchem; pH 7.4, aqueous buffer): 386 µg/mL (≈ 908 µM)
COC(=O)Nc1nc2cc(C(=O)c3ccccc3)ccc2n1COC(=O)OC[C@H]1OC(O)[C@H](O)[C@@H](O)[C@@H]1O (stereo partly drawn) [Compound 9, Methyl (5-benzoyl-1-((((((2R,3S,4S,5R)-3,4,5,6-tetrahydroxytetrahydro-2H-pyran-2-yl)methoxy)carbonyl)oxy)methyl)-1H-benzo[d]imidazol-2-yl)carbamate] | 4 ± 0% | 18 ± 0% | greater than 200 fold | 27 ± 0% | solubility at 24 h (physchem; pH 7.4, aqueous buffer): 220 µg/mL (≈ 414 µM); metabolized in mouse plasma ([2]; 60 min incubation): 82%
COC(=O)Nc1nc2cc(C(=O)c3ccccc3)ccc2n1COP(=O)(O)O [Compound 11, Methyl (5-benzoyl-1-((phosphonooxy)methyl)-1H-benzo[d]imidazol-2-yl)carbamate] | 35 ± 4% | 62 ± 1% |  | 100 ± 2% | MBZ plasma concentration at 1 h post oral administration [3]: 8.53 ± 2.33 nmol/mL; stability in liver microsomes ([4]; 60 min incubation): stable
COC(=O)Nc1nc2cc(C(=O)c3ccccc3)ccc2n1COP(=O)([O-])OCOC(=O)OC(C)C.[Na+] [Compound 12, Methyl (5-benzoyl-1-(((hydroxy(((isopropoxycarbonyl)oxy)methoxy)phosphoryl)oxy)methyl)-1H-benzo[d]imidazol-2-yl)carbamate, sodium salt] | 1 ± 0% | 73 ± 3% | > 10,000 fold | 14 ± 0% | stability in intestinal tissue homogenate [1]: unstable; MBZ plasma concentration at 1 h post oral administration [3]: 10.35 ± 2.57 nmol/mL; fold improvement in plasma MBZ over MBZ-C ([3]; po, 1 h): 3.6 fold; AUC0-t (MBZ, plasma) ([6]; male, CD-1, mouse, 30 mg/kg): 27.9 nmol·h/mL; brain AUC0-t ([6]; male, CD-1, mouse, 30 mg/kg): 21.9 nmol·h/mL; fold enhanced plasma AUC0-t compared to MBZ-C ([6]; male, CD-1, mouse, 30 mg/kg): 2.2 fold; fold increase in brain AUC0-t over MBZ-C ([6]; male, CD-1, mouse, 30 mg/kg): 1.7 fold; intact prodrug in brain samples ([6]; mouse): no intact prodrug was detected; intact prodrug in plasma samples ([6]; mouse): no intact prodrug was detected; AUC0-t (MBZ, brain) ([6]; mouse, 30 mg/kg): 21.9 ± 2.0 nmol·h/g
COC(=O)Nc1nc2cc(C(=O)c3ccccc3)ccc2n1COC(=O)CC[C@H](N)C(=O)O [Compound 14, (S)-2-Amino-5-((5-benzoyl-2-((methoxycarbonyl)amino)-1H-benzo[d]imidazol-1-yl)methoxy)-5-oxopentanoic acid] |  |  |  |  | solubility at 24 h (physchem; pH 7.4, water): 451 µg/mL (≈ 992 µM); chemical stability, % remaining at 60 min ([5]; 0.01 M PBS, 37° C., 60 min): 0%; chemical stability [5]: too unstable
COC(=O)Nc1nc2cc(C(=O)c3ccccc3)ccc2n1C(C)OC(=O)C(C)(C)C (centres unmarked) [Compound 15, 1-(5-benzoyl-2-((methoxycarbonyl)amino)-1H-benzo[d]imidazol-1-yl)ethyl pivalate] | 60% | 85% |  |  | 
COC(=O)Nc1nc2cc(C(=O)c3ccccc3)ccc2n1C(OC(=O)C(C)(C)C)C(C)C (centres unmarked) [Compound 16, 1-(5-benzoyl-2-((methoxycarbonyl)amino)-1H-benzo[d]imidazol-1-yl)-2-methylpropyl pivalate] | 100% |  |  |  | 
COC(=O)Nc1nc2cc(C(=O)c3ccccc3)ccc2n1COP(=O)([O-])OC(C)OC(=O)OC(C)C.[Na+] (centres unmarked) [Compound 17, Methyl (5-benzoyl-1-(((hydroxy(((isopropoxycarbonyl)oxy)ethoxy)phosphoryl)oxy)methyl)-111-benzo[d]imidazol-2-yl)carbamate, sodium salt] | 46% | 89% |  | 82% | 
COC(=O)Nc1nc2ccc(C(=O)c3ccccc3)cc2[nH]1 [MBZ, Mebendazole] |  |  |  |  | oral bioavailability ([7]; pilot human study, one subject, intravenous and oral [3H]-mebendazole): 17%; bioavailability ([7]; second human study, five subjects): 22% and 12-35%
